We go through four compounds from ChEMBL document CHEMBL1146939, “Design, synthesis, and biological evaluations of novel oxindoles as HIV-1 non-nucleoside reverse transcriptase inhibitors. Part 2” (Bioorg Med Chem Lett, 2006).

A value given as a limit tells only on which side of the number the result lay.

Usually bioavailability stands for the share of a dose that reaches the circulation, judged against a reference dose that is usually intravenous. A low value points to little systemic uptake. By EC50 is commonly meant the concentration that produces a half-maximal response. A high value points to lower potency in that assay. As usually defined, the CC50 is the concentration at which the toxic effect on the cells reaches its halfway point. A high value points to better tolerance by the cells. As a reminder, the Cmax is the peak of the concentration-time curve. For orientation: AUC means the area under the concentration-time curve, a measure of exposure. Lower therefore signals low exposure.

A short description of data set [1]: Oral bioavailability in […] rat at 50 mg/kg, po. Type of data set: ADME, organism-based. Conditions: in vivo.
The test system of data set [2] is Human immunodeficiency virus 1. The data set is described as follows: Antiviral activity against HIV1 I135V mutant. The data set is classed as functional, organism-based.
Data set [3] concerns Human immunodeficiency virus 1. The data set is described as follows: Antiviral activity against HIV1 L100I mutant. Type of data set: functional, organism-based.
Data set [4] deals with Human immunodeficiency virus 1. The data set can be described thus: Antiviral activity against HIV1 F227C mutant. The data set is classed as functional, organism-based.
Data set [5] has as its system Human immunodeficiency virus 1. The data set can be described thus: Antiviral activity against HIV1 F227L mutant. Type of data set: functional, organism-based.
For a further data set, the system named is HEK293. The data set is described as follows: Cytotoxicity against HEK293T cells. Type of data set: functional. The following applies: Homo sapiens.
For data set [6], the system named is Human immunodeficiency virus 1. The data set can be described thus: Antiviral activity against HIV1 V179E mutant. The data set is classed as functional, organism-based.
Data set [7] has as its system Human immunodeficiency virus 1. The data set can be described thus: Antiviral activity against HIV1 Y181C mutant. Type of data set: functional, organism-based.
In data set [8] the test system is Human immunodeficiency virus 1. The data set can be described thus: Antiviral activity against HIV1 Y188L mutant. The data set is classed as functional, organism-based.
Data set [9] concerns Human immunodeficiency virus 1. The data set can be described thus: Antiviral activity against HIV1 K103N mutant. The data set is classed as functional, organism-based.
Data set [10] has as its system Human immunodeficiency virus 1. The data set can be described thus: Antiviral activity against HIV1 I135T mutant. The data set is classed as functional, organism-based.
Data set [11] concerns Human immunodeficiency virus 1. The data set is described as follows: Antiviral activity against HIV1 in HEK293T cells. Type of data set: functional, organism-based. The following applies: Human immunodeficiency virus 1, HEK-293T.
The test system of data set [12] is Rattus norvegicus. The data set can be described thus: Cmax in […] rat at 50 mg/kg, po normalized to 1 mg/kg. Type of data set: ADME, organism-based. Also noted: dose 50 mg/kg, route oral. The following applies: in vivo.
In data set [13] the test system is Human immunodeficiency virus 1. The data set can be described thus: Antiviral activity against HIV1 E138K mutant. The data set is classed as functional, organism-based.
Data set [14] concerns Human immunodeficiency virus 1. The data set is described as follows: Antiviral activity against HIV1 V106A mutant. Type of data set: functional, organism-based.
The subject of data set [15] is Rattus norvegicus. The data set can be described thus: AUC in […] rat at 50 mg/kg, po normalized to 1 mg/kg. The data set is classed as ADME, organism-based, Plasma. Conditions: in vivo.

In data set [1], `O=C1Nc2ccc(Cl)cc2[C@@]12C[C@@H]2c1ccccn1` registered a bioavailability of 46%. Also, the EC50 worked out at 26 nM in data set [2]; 174 nM in data set [3]; 528 nM in data set [4]; 13 nM in [5]; 898 nM in [6]; 3230 nM in [7]. Besides, the EC50 in data set [8] was over 10000 nM; in data set [9], over 10000 nM; in data set [10] it was 127 nM; in [11], 8 nM; in data set [13] it was 45 nM; in [14], 259 nM. The compound also returned a cytotoxic concentration (CC50) in the data set with HEK293 of over 10000 nM. The Cmax in the data set with Rattus norvegicus [12] was found to be 68.4 nM. In the data set with Rattus norvegicus [15], this compound showed an AUC of 5.43 µg·min/mL.
Turning to `O=C1Nc2ccc(Cl)cc2[C@@]12C[C@@H]2c1ccsc1`, the EC50 in data set [2] is 17 nM; in [3] it was 8 nM; in data set [4], 142 nM; in data set [5], 2 nM; in data set [6], 324 nM; in data set [7], 31 nM. Also, the EC50 in data set [8] worked out at 1250 nM; in data set [9], 100 nM; in [10] it was 48 nM; in data set [11], 6 nM; in data set [13], 30 nM; in data set [14], 513 nM. Also, the cytotoxic concentration (CC50) in the data set on HEK293 turned out to be 1670 nM.
In [1], `CCOC(=O)[C@H]1C(C)(C)[C@]12C(=O)Nc1ccc(Br)cc12` gave a bioavailability of 27%. For the same compound, in the data set with HEK293, the CC50 was over 10000 nM. The Cmax in the data set with Rattus norvegicus [12] was 17.9 nM. In the data set on Rattus norvegicus [15], this compound yielded an AUC of 0.9 µg·min/mL.
Consider `Cc1cc([C@H]2C[C@]23C(=O)Nc2ccc(Cl)cc23)oc1C`, for which the half-maximal effective concentration (EC50) in data set [2] amounted to 59 nM; in [3] it was 260 nM; in [4], 957 nM; in data set [5] it was 63 nM; in data set [6] it was 2460 nM; in data set [7], 3070 nM. Also, the EC50 in [8] is over 10000 nM; in [9], over 10000 nM; in [10] it was 236 nM; in data set [11], 27 nM; in [13] it was 52 nM; in data set [14], 630 nM. This compound had a half-maximal cytotoxic concentration (CC50) with HEK293 of over 10000 nM.
